Experimental data taken from publication PMC10210398, “Genomic, functional and structural analyses elucidate evolutionary innovation within the sea anemone 8 toxin family” (BMC Biology, 2023).
Entries after “also recorded” stand apart in the source; their conditions may differ. Bridge positions count the residues as written; N and C are the ends. Ends that are not written are not given here.

Experiments:
hKV1.3 = type: cell-based, human
Method: (§1) CHO cells (ATCC) were transiently transfected with plasmids encoding hKV1.1, hKV1.2, hKV10.1, hKCa3.1, hTRPA1, or hNaV1.7 using Lipofectamine 2000 (Invitrogen, Carlsbad, CA) following the manufacturer’s protocol, then cultured under standard conditions. The cells were co-transfected with a plasmid encoding green fluorescent protein (GFP) at a molar ratio of 10:1 except for hKV1.1, hKV1.2, and hKCa3.1 for which GFP-tagged ion channel vectors were used. Currents were recorded 24–36 h after transfection. […] HEK 293 cells stably expressing the hKv11.1 channel (hERG, hKCNH2 gene, a kind gift from H. Wulff, University of California, Davis, CA) and mKCa1.1 channel (BKCa, hKCNMA1, a kind gift from C. Beeton, Baylor College of Medicine, Houston, TX) were used. hTRPV1 channels were expressed in a stable manner in CHO cells. Transfected cells were washed twice with 2 mL of ECS (see below) and re-plated onto 35-mm polystyrene cell culture dishes (Cellstar, Greiner Bio-One). hKV1.3 currents were recorded from activated peripheral blood mononuclear cells (PBMCs, see below) 3–4 days after activation. Human veinous blood was obtained from anonymised healthy donors. PBMCs were isolated using Histopaque1077 (Sigma-Aldrich Hungary, Budapest, Hungary) density gradient centrifugation. Cells obtained were resuspended in RPMI 1640 medium containing 10% foetal calf serum (Sigma-Aldrich Hungary, Budapest, Hungary), 100 μg/mL penicillin, 100 μg/mL streptomycin, and 2 mM L-glutamine, seeded in a 24-well culture plate at a density of 5–6 × 10^5 cells/mL, and grown in a 5% CO2 incubator at 37 °C for 3–5 days. […]
(§2) Conventional whole-cell patch-clamp electrophysiology was used to record ionic currents. […] Data were analysed using Prism 8 (GraphPad, CA, USA) and ClampFit 10.5 software (Molecular Devices Inc., Sunnyvale, CA). […] For hKCa3.1, hTRPA1 and hTRPV1, the reversal potential for K^+ was determined and only those currents were analysed for which the reversal potential fell into the range of the theoretical reversal potential ± 5 mV (− 86.5 ± 5 mV for KCa3.1, and 0 ± 5 mV for hTRPA1 and hTRPV1).

hTRPA1 = assay: Whole-cell patch-clamp, hTRPA1 in transiently transfected CHO cells; type: cell-based, human
Method: (§3) CHO and human embryonic kidney (HEK 293) cells were grown in DMEM-high glucose supplemented with 10% FBS, 2 mM L-glutamine, 100 U/mL penicillin-g, and 100 μg/mL streptomycin (Invitrogen) at 37 °C in a 5% CO2 and 95% air humidified atmosphere. Cells were passaged twice per week following a 5-min incubation in PBS containing 0.2 g/L EDTA (Invitrogen, Carlsbad, CA).
(§4) CHO cells (ATCC) were transiently transfected with plasmids encoding hKV1.1, hKV1.2, hKV10.1, hKCa3.1, hTRPA1, or hNaV1.7 using Lipofectamine 2000 (Invitrogen, Carlsbad, CA) following the manufacturer’s protocol, then cultured under standard conditions. The cells were co-transfected with a plasmid encoding green fluorescent protein (GFP) at a molar ratio of 10:1 except for hKV1.1, hKV1.2, and hKCa3.1 for which GFP-tagged ion channel vectors were used. Currents were recorded 24–36 h after transfection. […] Transfected cells were washed twice with 2 mL of ECS (see below) and re-plated onto 35-mm polystyrene cell culture dishes (Cellstar, Greiner Bio-One). hKV1.3 currents were recorded from activated peripheral blood mononuclear cells (PBMCs, see below) 3–4 days after activation. […]
(§5) Conventional whole-cell patch-clamp electrophysiology was used to record ionic currents. […] Data were analysed using Prism 8 (GraphPad, CA, USA) and ClampFit 10.5 software (Molecular Devices Inc., Sunnyvale, CA). […]

hKV1.2 = biological target: T1, hKV1.2 (Homo sapiens, UniProt P16389); assay: Whole-cell patch-clamp, hKV1.2 in transiently transfected CHO cells; type: cell-based; details: for RCF_mean (remaining current fraction, I/I0): mean
T1 construct: GFP; expressed in transfected cells; host or cells: CHO cells (ATCC), transient transfection with Lipofectamine 2000
T1 sequence (P16389 whole entry): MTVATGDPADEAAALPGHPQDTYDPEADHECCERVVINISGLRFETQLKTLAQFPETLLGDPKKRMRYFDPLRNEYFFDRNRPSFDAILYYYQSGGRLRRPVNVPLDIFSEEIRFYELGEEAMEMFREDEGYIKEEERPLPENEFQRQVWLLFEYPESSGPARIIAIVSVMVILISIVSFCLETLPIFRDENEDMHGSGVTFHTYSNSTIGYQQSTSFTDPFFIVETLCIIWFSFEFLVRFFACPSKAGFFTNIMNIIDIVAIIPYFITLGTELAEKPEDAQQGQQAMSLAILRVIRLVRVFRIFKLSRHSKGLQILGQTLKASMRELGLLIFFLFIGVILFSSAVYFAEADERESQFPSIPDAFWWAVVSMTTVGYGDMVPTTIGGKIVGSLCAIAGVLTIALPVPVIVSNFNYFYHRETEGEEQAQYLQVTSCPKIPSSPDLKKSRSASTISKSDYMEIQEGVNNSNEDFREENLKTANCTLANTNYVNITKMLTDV
Method: as §3
CHO cells (ATCC) were transiently transfected with plasmids encoding hKV1.1, hKV1.2, hKV10.1, hKCa3.1, hTRPA1, or hNaV1.7 using Lipofectamine 2000 (Invitrogen, Carlsbad, CA) following the manufacturer’s protocol, then cultured under standard conditions. The cells were co-transfected with a plasmid encoding green fluorescent protein (GFP) at a molar ratio of 10:1 except for hKV1.1, hKV1.2, and hKCa3.1 for which GFP-tagged ion channel vectors were used. Currents were recorded 24–36 h after transfection. […] HEK 293 cells stably expressing the hKv11.1 channel (hERG, hKCNH2 gene, a kind gift from H. Wulff, University of California, Davis, CA) and mKCa1.1 channel (BKCa, hKCNMA1, a kind gift from C. Beeton, Baylor College of Medicine, Houston, TX) were used. hTRPV1 channels were expressed in a stable manner in CHO cells. Transfected cells were washed twice with 2 mL of ECS (see below) and re-plated onto 35-mm polystyrene cell culture dishes (Cellstar, Greiner Bio-One). hKV1.3 currents were recorded from activated peripheral blood mononuclear cells (PBMCs, see below) 3–4 days after activation. Human veinous blood was obtained from anonymised healthy donors. PBMCs were isolated using Histopaque1077 (Sigma-Aldrich Hungary, Budapest, Hungary) density gradient centrifugation. Cells obtained were resuspended in RPMI 1640 medium containing 10% foetal calf serum (Sigma-Aldrich Hungary, Budapest, Hungary), 100 μg/mL penicillin, 100 μg/mL streptomycin, and 2 mM L-glutamine, seeded in a 24-well culture plate at a density of 5–6 × 10^5 cells/mL, and grown in a 5% CO2 incubator at 37 °C for 3–5 days. Phytohemagglutinin A (PHA, Sigma-Aldrich Hungary, Budapest, Hungary) was added to the medium at 10 μg/mL to amplify the KV1.3 expression. Cells were washed gently twice with 2 mL of ECS for the patch-clamp experiments.
Conventional whole-cell patch-clamp electrophysiology was used to record ionic currents. Micropipettes were pulled in four stages using a Flaming Brown automatic pipette puller (Sutter Instruments, San Rafael, CA) from Borosilicate Standard Wall with Filament aluminium–silicate glass (Harvard Apparatus Co., Holliston, MA) with tip diameters between 0.5 and 1 μm and heat polished to a tip resistance of 2–8 MΩ. All measurements were carried out by using Axopatch 200B amplifier connected to a personal computer using Axon Digidata 1550A data acquisition hardware (Molecular Devices, Sunnyvale, CA). In general, the holding potential was − 120 mV. Records were discarded when a leak at the holding potential was > 10% of the peak current at the test potential. Series resistance compensation up to 70% was used to minimise voltage errors and achieve proper voltage-clamp conditions. Experiments were performed at room temperature (20–24 °C). Data were analysed using Prism 8 (GraphPad, CA, USA) and ClampFit 10.5 software (Molecular Devices Inc., Sunnyvale, CA). Before analysis, whole-cell current traces were corrected for ohmic leakage and digitally filtered with a three-point boxcar smoothing filter. For hKCa3.1, hTRPA1 and hTRPV1, the reversal potential for K^+ was determined and only those currents were analysed for which the reversal potential fell into the range of the theoretical reversal potential ± 5 mV (− 86.5 ± 5 mV for KCa3.1, and 0 ± 5 mV for hTRPA1 and hTRPV1).

hKV10.1 = assay: Whole-cell patch-clamp, hKV10.1 in transiently transfected CHO cells; type: cell-based, human
Method: as §3
as §1, with “donors.” for “donors. PBMCs were isolated using Histopaque1077 (Sigma-Aldrich Hungary, Budapest, Hungary) density gradient centrifugation. Cells obtained were resuspended in RPMI 1640 medium containing 10% foetal calf serum (Sigma-Aldrich Hungary, Budapest, Hungary), 100 μg/mL penicillin, 100 μg/mL streptomycin, and 2 mM L-glutamine, seeded in a 24-well culture plate at a density of 5–6 × 10^5 cells/mL, and grown in a 5% CO2 incubator at 37 °C for 3–5 days.”
as §2

hKCa3.1 = assay: Whole-cell patch-clamp, hKCa3.1 in transiently transfected CHO cells; type: cell-based, human
Method: as §3, §4, §5

mKCa1.1 channel = type: cell-based
Method: as §3
as §1, with “donors.” for “donors. PBMCs were isolated using Histopaque1077 (Sigma-Aldrich Hungary, Budapest, Hungary) density gradient centrifugation. Cells obtained were resuspended in RPMI 1640 medium containing 10% foetal calf serum (Sigma-Aldrich Hungary, Budapest, Hungary), 100 μg/mL penicillin, 100 μg/mL streptomycin, and 2 mM L-glutamine, seeded in a 24-well culture plate at a density of 5–6 × 10^5 cells/mL, and grown in a 5% CO2 incubator at 37 °C for 3–5 days.”
as §2

hNaV1.7 = assay: Whole-cell patch-clamp, hNaV1.7 in transiently transfected CHO cells; type: cell-based, human
Method: as §3, §4, §5

hKV1.1 = type: cell-based, human
Method: as §3
as §1, with “donors.” for “donors. PBMCs were isolated using Histopaque1077 (Sigma-Aldrich Hungary, Budapest, Hungary) density gradient centrifugation. Cells obtained were resuspended in RPMI 1640 medium containing 10% foetal calf serum (Sigma-Aldrich Hungary, Budapest, Hungary), 100 μg/mL penicillin, 100 μg/mL streptomycin, and 2 mM L-glutamine, seeded in a 24-well culture plate at a density of 5–6 × 10^5 cells/mL, and grown in a 5% CO2 incubator at 37 °C for 3–5 days.”
as §2

[1] = test system: hKV11.1 channel (hERG, hKCNH2 gene); assay: Whole-cell patch-clamp, hKV11.1 (hERG) stably expressed in HEK 293 cells; type: cell-based, human
Method: as §3, §4, §5

hTRPV1 = assay: Whole-cell patch-clamp, hTRPV1 stably expressed in CHO cells; type: cell-based, human
Method: as §3, §4, §5

GYGKGRPGCYNHYDESICGGVIKDEHCKAGRGSRMGKFALKNCQFQCGLC (disulfide 9-47, 18-50, 27-43) [SA8]
RCF_mean (remaining current fraction, I/I0) (hKV1.3; Kv1.3, 100 nM SA8, mean, n = 3, SEM 0.00826878): 1.03 | effect on current, in words (hKV1.3; hKV1.3, activated PBMCs, 100 nM SA8): no effect; also recorded: did not inhibit | RCF_mean (remaining current fraction, I/I0) (hTRPA1; TRPA1, 100 nM SA8, mean, n = 5, SEM 0.0123957): 0.9628 | effect on current, in words (hTRPA1; hTRPA1, CHO cells, activated by 100 µM AITC, 100 nM SA8): no effect; also recorded: did not inhibit | association and dissociation rates (hKV1.2; 100 nM SA8, hKV1.2): rapid | reversibility of block upon washing (hKV1.2; 100 nM SA8, hKV1.2, inhibitor-free solution): almost fully reversible | time for development of equilibrium block and recovery (hKV1.2; 100 nM SA8, hKV1.2, recovery up to ~ 85% of control current): ~ 1 min | IC50 (hKV1.2; 0.01, 0.1, 1 and 10 µM SA8, linear least squares fit Y = 1 + slope × [toxin], n = 4, room temperature (20–24 °C), ECS pH 7.35, 0.1 mg/mL BSA, CHO cells): 40.8 ± 4.9 µM | RCF_mean (remaining current fraction, I/I0) (hKV1.2; Kv1.2, 10 nM SA8, n = 5, SEM 0.00976051): 0.9869 | RCF_mean (remaining current fraction, I/I0) (hKV1.2; Kv1.2, 100 nM SA8, n = 4, SEM 0.0156624): 0.9412 | RCF_mean (remaining current fraction, I/I0) (hKV1.2; Kv1.2, 1000 nM SA8, n = 4, SEM 0.0249691): 0.9151 | RCF_mean (remaining current fraction, I/I0) (hKV1.2; Kv1.2, 10000 nM SA8, n = 6, SEM 0.0222303): 0.772 | recovery of current upon washing (of control current) (hKV1.2; after 100 nM SA8, hKV1.2, inhibitor-free solution): ~ 85% | effect on current, in words (hKV1.2; hKV1.2, CHO cells, 100 nM): weak block; also recorded: modest block; also recorded: weak inhibition | RCF_mean (remaining current fraction, I/I0) (hKV10.1; Kv10.1, 1000 nM SA8, mean, n = 4, SEM 0.00577385): 0.9796 | effect on current, in words (hKV10.1; hKV10.1, CHO cells, 1 µM SA8): no effect; also recorded: did not inhibit | RCF_mean (remaining current fraction, I/I0) (hKCa3.1; KCa3.1, 100 nM SA8, mean, n = 6, SEM 0.0170688): 0.9712 | effect on current, in words (hKCa3.1; hKCa3.1, CHO cells, 100 nM SA8): no effect; also recorded: did not inhibit | RCF_mean (remaining current fraction, I/I0) (mKCa1.1 channel; KCa1.1, 100 nM SA8, mean, n = 4, SEM 0.0158455): 1.052 | effect on current, in words (mKCa1.1 channel; mKCa1.1, HEK 293, 100 nM SA8): no effect; also recorded: did not inhibit | RCF_mean (remaining current fraction, I/I0) (hNaV1.7; Nav1.7, 1000 nM SA8, mean, n = 5, SEM 0.022988): 1.02 | effect on current, in words (hNaV1.7; hNaV1.7, CHO cells, 1 µM SA8): no effect; also recorded: did not inhibit | RCF_mean (remaining current fraction, I/I0) (hKV1.1; Kv1.1, 100 nM SA8, mean, n = 4, SEM 0.0202631): 1.029 | effect on current, in words (hKV1.1; hKV1.1, CHO cells, 100 nM SA8): no effect; also recorded: did not inhibit | RCF_mean (remaining current fraction, I/I0) ([1]; Kv11.1, 100 nM SA8, mean, n = 5, SEM 0.0157239): 1.029 | effect on current, in words ([1]; hKV11.1 (hERG), HEK 293, 100 nM SA8): no effect; also recorded: did not inhibit | RCF_mean (remaining current fraction, I/I0) (hTRPV1; TRPV1, 100 nM SA8, mean, n = 5, SEM 0.0111172): 0.9606 | effect on current, in words (hTRPV1; hTRPV1, CHO cells, activated by 1 µM capsaicin, 100 nM SA8): no effect; also recorded: did not inhibit
